# Columns and labels:
# [1] = tested on: S6 (serine 235 and 236) phosphorylation in AN3CA tumor; assay: S6 phosphorylation inhibition assay in xenograft; format: in vivo, female nude mouse; conditions: Mus musculus, AN3-CA, oral, 6 hr after dosing
# Summary of the method: (§1)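 AN3CA human endometrial cancer cells grown as subcutaneous xenografts in female nude mice; compound dosed orally at a set concentration, tumors excised after a set time. Tumor lysates at equal protein were western blotted for p-Akt(T308) and p-S6(S235/236). Inhibition (%) = 100−100×(treated/untreated phospho signal).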
# [2] = target: T1, human mTOR (His-tagged mTOR (1362C)) (Homo sapiens, UniProt P42345); assay: mTOR kinase activity inhibition assay; format: biochemical; conditions: HTRF, read-out: IC50 against mTOR
# T1 construct: the 1362 to 2549 amino acid portion on the C terminus side of human mTOR; His tag (N); made in house
# T1 sequence (P42345 1362-2549): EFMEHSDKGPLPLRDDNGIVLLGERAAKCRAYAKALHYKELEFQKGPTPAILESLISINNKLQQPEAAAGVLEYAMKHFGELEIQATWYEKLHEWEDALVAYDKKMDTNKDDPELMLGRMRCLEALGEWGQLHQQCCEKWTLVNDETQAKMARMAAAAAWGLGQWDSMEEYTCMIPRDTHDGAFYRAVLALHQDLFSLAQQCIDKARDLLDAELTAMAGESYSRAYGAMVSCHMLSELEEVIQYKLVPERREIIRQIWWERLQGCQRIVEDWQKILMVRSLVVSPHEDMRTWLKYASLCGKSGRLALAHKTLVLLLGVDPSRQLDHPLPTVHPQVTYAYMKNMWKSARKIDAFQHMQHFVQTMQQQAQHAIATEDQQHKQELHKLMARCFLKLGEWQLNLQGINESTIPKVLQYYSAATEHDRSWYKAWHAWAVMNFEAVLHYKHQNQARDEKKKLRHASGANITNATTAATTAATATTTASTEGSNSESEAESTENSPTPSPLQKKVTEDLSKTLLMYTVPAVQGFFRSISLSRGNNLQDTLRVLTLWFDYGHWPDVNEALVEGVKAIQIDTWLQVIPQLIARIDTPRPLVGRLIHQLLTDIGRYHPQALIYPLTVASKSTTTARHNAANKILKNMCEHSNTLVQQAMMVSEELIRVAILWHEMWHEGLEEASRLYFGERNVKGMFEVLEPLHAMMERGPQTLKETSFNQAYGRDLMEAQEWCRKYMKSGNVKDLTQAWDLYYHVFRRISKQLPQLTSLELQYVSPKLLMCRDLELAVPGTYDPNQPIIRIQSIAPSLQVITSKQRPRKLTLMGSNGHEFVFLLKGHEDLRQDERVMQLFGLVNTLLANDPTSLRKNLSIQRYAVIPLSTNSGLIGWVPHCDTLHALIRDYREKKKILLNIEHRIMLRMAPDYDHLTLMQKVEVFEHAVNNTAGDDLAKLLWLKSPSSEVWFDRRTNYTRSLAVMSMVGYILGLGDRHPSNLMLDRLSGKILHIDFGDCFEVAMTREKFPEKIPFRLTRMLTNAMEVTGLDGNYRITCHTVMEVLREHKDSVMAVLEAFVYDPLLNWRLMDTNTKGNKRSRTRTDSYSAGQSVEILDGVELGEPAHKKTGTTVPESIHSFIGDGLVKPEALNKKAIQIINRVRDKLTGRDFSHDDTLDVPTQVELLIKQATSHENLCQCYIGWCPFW
# Summary of the method: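 Crude His-tagged mTOR (aa 1362–2549) from stable HEK293 cells, with 8 μg/ml biotinylated peptide in 50 mM HEPES pH 7.5, 20 mM MnCl2; compound diluted in 20 μM ATP solution, reaction 3 h at room temperature. Phospho-peptide detected by HTRF (anti-phospho-S6K Thr389 cryptate/streptavidin-XL665, overnight at 4°C), 665/620 nm ratio. IC50 derived from curve fit of % inhibition.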
# [3] = tested on: Akt (threonine 308) phosphorylation in AN3CA tumor; assay: Akt phosphorylation inhibition assay in xenograft; format: in vivo, female nude mouse; conditions: Mus musculus, AN3-CA, oral, 6 hr after dosing
# Summary of the method: as §1
IC50 [2] [µM],SMILES,inhibition at 10 mg/kg [1] [%],inhibition at 10 mg/kg [3] [%]
< 0.01,"CC(=O)N1CCN(c2nc3c(N4CCOCC4)nc(-c4cnc(N)nc4)nc3n2CC(F)(F)F)C[C@@H]1C [Example 63, 5-{8-[(3S)-4-Acetyl-3-methylpiperazin-1-yl]-6-morpholin-4-yl-9-(2,2,2-trifluoroethyl)-9H-purin-2-yl}pyrimidin-2-amine]",> 90,> 60
< 0.01,"CNc1ncc(-c2nc(N3CCOCC3)c3nc(N4CCN(C(C)=O)CC4)n(CC(F)(F)F)c3n2)cn1 [Example 134, 5-[8-(4-Acetylpiperazin-1-yl)-6-morpholin-4-yl-9-(2,2,2-trifluoroethyl)-9H-purin-2-yl]-N-methylpyrimidin-2-amine]",> 90,30 to 60
< 0.01,"C[C@H]1CN(c2nc3c(N4CCOCC4)nc(-c4cnc(N)nc4)nc3n2CC(F)(F)F)CCN1C=O [Example 111, (2S)-4-[2-(2-Aminopyrimidin-5-yl)-6-morpholin-4-yl-9-(2,2,2-trifluoroethyl)-9H-purin-8-yl]-2-methylpiperazine-1-carboaldehyde]",> 90,> 60
< 0.01,"CC[C@H]1CN(c2nc3c(N4CCOCC4)nc(-c4cnc(N)nc4)nc3n2CC(F)(F)F)CCN1S(C)(=O)=O [Example 76, 5-{8-[(3S)-3-Ethyl-4-(methylsulfonyl)piperazin-1-yl]-6-morpholin-4-yl-9-(2,2,2-trifluoroethyl)-9H-purin-2-yl}pyrimidin-2-amine]",> 90,> 60
< 0.01,"CN(C)C(=O)C(=O)N1CCN(c2nc3c(N4CCOCC4)nc(-c4cnc(N)nc4)nc3n2CC(F)(F)F)CC1 [Example 66, 2-{4-[2-(2-Aminopyrimidin-5-yl)-6-morpholin-4-yl-9-(2,2,2-trifluoroethyl)-9H-purin-8-yl]piperazin-1-yl}-N,N-dimethyl-2-oxoacetamide]",70 to 90,30 to 60
< 0.01,"CNc1ncc(-c2nc(N3CCOCC3)c3nc(N4CCN(C(C)=O)[C@@H](C)C4)n(CC(F)(F)F)c3n2)cn1 [Example 107, 5-{8-[(3S)-4-Acetyl-3-methylpiperazin-1-yl]-6-morpholin-4-yl-9-(2,2,2-trifluoroethyl)-9H-purin-2-yl}-N-methylpyrimidin-2-amine]",> 90,> 60
< 0.01,"CNc1ncc(-c2nc(N3CCOCC3)c3nc(N4CCN(S(C)(=O)=O)[C@@H](C)C4)n(CC(F)(F)F)c3n2)cn1 [Example 105, N-Methyl-5-{8-[(3S)-3-methyl-4-(methylsulfonyl)piperazin-1-yl]-6-morpholin-4-yl-9-(2,2,2-trifluoroethyl)-9H-purin-2-yl}pyrimidin-2-amine]",> 90,30 to 60
0.01 to 0.03,"CC(C)Cn1c(N2CCN(C(=O)[C@H](C)O)[C@@H](C)C2)nc2c(N3CCOCC3)nc(-c3cnc(N)nc3)nc21 [Example 104, (2S)-1-{(2S)-4-[2-(2-Aminopyrimidin-5-yl)-9-isobutyl-6-morpholin-4-yl-9H-purin-8-yl]-2-methylpiperazin-1-yl}-1-oxopropan-2-ol]",> 90,> 60
0.01 to 0.03,"CC(C)Cn1c(N2CCN(C=O)CC2)nc2c(N3CCOCC3)nc(-c3cnc(N)nc3)nc21 [Example 90, 4-[2-(2-Aminopyrimidin-5-yl)-9-isobutyl-6-morpholin-4-yl-9H-purin-8-yl]piperazine-1-carboaldehyde]",> 90,> 60
< 0.01,"CC(=O)N1CCN(c2nc3c(N4CCOCC4)nc(-c4cnc(N)nc4)nc3n2CC2CC2)C[C@@H]1C [Example 96, 5-{8-[(3S)-4-Acetyl-3-methylpiperazin-1-yl]-9-(cyclopropylmethyl)-6-morpholin-4-yl-9H-purin-2-yl}pyrimidin-2-amine]",> 90,> 60
0.01 to 0.03,"CC(=O)N1CCN(c2nc3c(N4CCOCC4)nc(-c4cnc(N)nc4)nc3n2CC(F)(F)F)CC12CC2 [Example 119, 5-[8-(4-Acetyl-4,7-diazaspiro[2.5]oct-7-yl)-6-morpholin-4-yl-9-(2,2,2-trifluoroethyl)-9H-purin-2-yl]pyrimidin-2-amine]",> 90,30 to 60
0.01 to 0.03,"C[C@H](O)C(=O)N1CCN(c2nc3c(N4CCOCC4)nc(-c4cnc(N)nc4)nc3n2CC2CC2)C[C@H]1C [Example 95, (2S)-1-{(2R)-4-[2-(2-Aminopyrimidin-5-yl)-9-(cyclopropylmethyl)-6-morpholin-4-yl-9H-purin-8-yl]-2-methylpiperazin-1-yl}-1-oxopropan-2-ol]",70 to 90,> 60
0.01 to 0.03,"CC(C)Cn1c(N2CCN(C(=O)C[C@@H](C)O)[C@H](C)C2)nc2c(N3CCOCC3)nc(-c3cnc(N)nc3)nc21 [Example 84, (2R)-4-{(2R)-4-[2-(2-Aminopyrimidin-5-yl)-9-isobutyl-6-morpholin-4-yl-9H-purin-8-yl]-2-methylpiperazin-1-yl}-4-oxobutan-2-ol]",> 90,> 60
0.03 to 0.1,"C[C@H](O)C(=O)N1CCN(c2nc3c(N4CCOCC4)nc(-c4cnc(N)nc4)nc3n2CC2CC2)CC1 [Example 88, (2S)-1-{4-[2-(2-Aminopyrimidin-5-yl)-9-(cyclopropylmethyl)-6-morpholin-4-yl-9H-purin-8-yl]piperazin-1-yl}-1-oxopropan-2-ol]",70 to 90,> 60
< 0.01,"C[C@@H](O)C(=O)N1CCN(c2nc3c(N4CCOCC4)nc(-c4cnc(N)nc4)nc3n2CC2CC2)C[C@@H]1C [Example 113, (2R)-1-{(2S)-4-[2-(2-Aminopyrimidin-5-yl)-9-(cyclopropylmethyl)-6-morpholin-4-yl-9H-purin-8-yl]-2-methylpiperazin-1-yl}-1-oxopropan-2-ol]",> 90,> 60
0.01 to 0.03,"CC(C)Cn1c(N2CCN(C=O)[C@H](C)C2)nc2c(N3CCOCC3)nc(-c3cnc(N)nc3)nc21 [Example 100, (2R)-4-[2-(2-Aminopyrimidin-5-yl)-9-isobutyl-6-morpholin-4-yl-9H-purin-8-yl]-2-methylpiperazine-1-carboaldehyde]",> 90,> 60
0.01 to 0.03,"C[C@H](O)C(=O)N1CCN(c2nc3c(N4CCOCC4)nc(-c4cnc(N)nc4)nc3n2CC2CC2)C[C@@H]1C [Example 92, (2S)-1-{(2S)-4-[2-(2-Aminopyrimidin-5-yl)-9-(cyclopropylmethyl)-6-morpholin-4-yl-9H-purin-8-yl]-2-methylpiperazin-1-yl}-1-oxopropan-2-ol]",> 90,> 60
< 0.01,"CS(=O)(=O)N1CCN(c2nc3c(N4CCOCC4)nc(-c4cnc(N)nc4)nc3n2CC(F)F)CC1 [Example 64, 5-{9-(2,2-Difluoro-ethyl)-8-[4-(methylsulfonyl)piperazin-1-yl]-6-morpholin-4-yl-9H-purin-2-yl}pyrimidin-2-amine]",> 90,30 to 60
< 0.01,"CC(C)Cn1c(N2CCN(C(=O)C[C@H](C)O)[C@@H](C)C2)nc2c(N3CCOCC3)nc(-c3cnc(N)nc3)nc21 [Example 85, (2S)-4-{(2S)-4-[2-(2-Aminopyrimidin-5-yl)-9-isobutyl-6-morpholin-4-yl-9H-purin-8-yl]-2-methylpiperazin-1-yl}-4-oxobutan-2-ol]",> 90,> 60
< 0.01,"C[C@H](O)C(=O)N1CCN(c2nc3c(N4CCOCC4)nc(-c4cnc(N)nc4)nc3n2CC(F)(F)F)C[C@H]1C [Example 110, (2S)-1-{(2R)-4-[2-(2-Aminopyrimidin-5-yl)-6-morpholin-4-yl-9-(2,2,2-trifluoroethyl)-9H-purin-8-yl]-2-methylpiperazin-1-yl}-1-oxopropan-2-ol]",> 90,> 60
< 0.01,"CC(C)Cn1c(N2CCN(C(=O)C[C@@H](C)O)[C@@H](C)C2)nc2c(N3CCOCC3)nc(-c3cnc(N)nc3)nc21 [Example 83, (2R)-4-{(2S)-4-[2-(2-Aminopyrimidin-5-yl)-9-isobutyl-6-morpholin-4-yl-9H-purin-8-yl]-2-methylpiperazin-1-yl}-4-oxobutan-2-ol]",> 90,> 60
< 0.01,"C[C@@H]1CN(c2nc3c(N4CCOCC4)nc(-c4cnc(N)nc4)nc3n2CC(F)(F)F)CCN1C=O [Example 112, (2R)-4-[2-(2-Aminopyrimidin-5-yl)-6-morpholin-4-yl-9-(2,2,2-trifluoroethyl)-9H-purin-8-yl]-2-methylpiperazine-1-carboaldehyde]",> 90,> 60
< 0.01,"C[C@@H]1CN(c2nc3c(N4CCOCC4)nc(-c4cnc(N)nc4)nc3n2CC(F)(F)F)C[C@H](C)N1C=O [Example 116, 4-[2-(2-Aminopyrimidin-5-yl)-6-morpholin-4-yl-9-(2,2,2-trifluoroethyl)-9H-purin-8-yl]-cis-2,6-dimethylpiperazine-1-carboaldehyde]",> 90,> 60
